≈ marks a conversion by molar mass, not a printed value.
What was measured:
[1] = tested on: narcotized rats; test: Anti-hypertensive effect on narcotized rats; type: in vivo, rat (male Sprague-Dawley); conditions: rats under urethane narcosis, intraperitoneal; for ED (20%): Rattus norvegicus, ip, dose which lowers the blood pressure by 20%, read-out: Reduction in blood pressure, ED 20%; for Reduction in blood pressure, R.A. (relative activity): dihydralazine = 1.00
Method: 3. Anti-hypertensive effect on narcotized rats.
To test the anti-hypertensive effect, the substances are administered intraperitoneally to groups of 3-5 male Sprague-Dawley rats weighing 240-280 g, under urethane narcosis ([…] given intraperitoneally).
The measurement of the blood pressure in the carotid artery is carried out by means of Statham transducers. The ED 20% is determined as the dose which lowers the mean carotid blood pressure by 20%.
(§1) The effective doses or effective concentrations were calculated from the linear relationships between the logarithm of the dose or concentration and the logarithm of the effect, by means of regression analysis.
(§2) Acetylsalicylic acid was used as the reference substance for the inhibition of thrombocyte aggregation and dihydralazine for the anti-hypertensive effect.

[2] = tested on: spontaneously hypertonic rats; test: Anti-hypertensive effect on spontaneously hypertonic rats; type: in vivo, rat (male spontaneously hypertonic Okamoto); conditions: for ED (20%): Rattus norvegicus, 2 h, dose which lowers the blood pressure by 20% compared to the control group; for ED (20%) / Anti-hypertensive effect, R.A.: oral administration; for Anti-hypertensive effect, R.A.: dihydralazine = 1.00
Method: 4. Anti-hypertensive effect on spontaneously hypertonic rats.
The substances are administered orally to groups of 4-8 male spontaneously hypertonic Okamoto rats weighing 270-340 g. Before, and 2 hours after, the administration, the systolic blood pressure is measured non-surgically by means of piezo-electric crystal sensors.
The ED 20% is determined as the dose which lowers the systolic pressure by 20%, taking into account the values found with untreated control animals.
as §1, §2

[3] = tested on: human thrombocytes; test: Inhibition of the collagen-induced aggregation of human thrombocytes in vitro; type: cell-based; conditions: human thrombocytes in vitro; for EC50: 10 min, concentration which inhibits the collagen-induced aggregation by 50%, 10 minutes incubation, read-out: Inhibition of collagen-induced thrombocyte aggregation in vitro, EC 50%; for Inhibition of aggregation, R.A. (relative activity): acetylsalicylic acid = 1.00
Method: 1. Inhibition of the collagen-induced aggregation of human thrombocytes in vitro.
(§3) Thrombocyte-rich plasma is obtained by centrifuging venous citrate blood (300 g, 10 minutes duration at 4° C.). The photometric measurement of the thrombocyte aggregation is carried out with addition of MgCl2 (final concentration 10 millimoles/l) and of collagen Stago (final concentration 0.02 mg/ml) in a Born Mk 3 aggregometer. The maximum extinction change/sec is used as a measure of the aggregation.
The aggregation-inhibiting activity of the substances is tested after an incubation time of 10 minutes.
The EC 50% is taken to be the concentration causing 50% inhibition of aggregation.
as §1, §2

[4] = tested on: rat thrombocytes; test: Inhibition of the collagen-induced aggregation of rat thrombocytes ex vivo; type: in vivo, rat (male Sprague-Dawley); conditions: rats; for ED (33%): Rattus norvegicus, dose which inhibits the collagen-induced aggregation by 33%, read-out: Inhibition of thrombocyte aggregation, ED 33%; for ED (33%) / Inhibition of thrombocyte aggregation, R.A. (relative activity): oral administration; for Inhibition of thrombocyte aggregation, R.A. (relative activity): acetylsalicylic acid = 1.00; for Inhibition of thrombocyte aggregation after oral administration in vivo (in words): versus acetylsalicylic acid
Method: as §3
2. Inhibition of the collagen-induced aggregation of rat thrombocytes ex vivo.
The substances are administered orally to groups of 10-15 male Sprague-Dawley rat weighing 200-250 g. 1-4 hours after administration, blood is taken under ether narcosis and thrombocyte-rich plasma is obtained by centrifuging. The aggregation after addition of collagen is measured as indicated above. The ED 33% is determined as the dose which inhibits the collagen-induced thrombocyte aggregation by 33%.
as §1, §2

Structure (SMILES)	ED (20%) [1] [mg/kg]	Reduction in blood pressure, R.A. (relative activity) [1]	ED (20%) [2] [mg/kg]	Anti-hypertensive effect in spontaneously hypertonic rats after oral administration (in words) [2]	Anti-hypertensive effect, R.A. [2]	EC50 [3] [µg/mL]	Inhibition of aggregation, R.A. (relative activity) [3]	ED (33%) [4] [mg/kg]	Inhibition of thrombocyte aggregation, R.A. (relative activity) [4]	Inhibition of thrombocyte aggregation after oral administration in vivo (in words) [4]
O=C(Nc1ccc(C2=NNC(=O)C3CC23)cc1)C1CC1 (centres unmarked) [Example 13, 2-(p-cyclopropylcarbonylaminophenyl)-3,4-diaza-bicyclo[4.1.0]hept-2-en-5-one hemihydrate]	0.0465	7.25	2.78	demonstrable	2.46	5.57	89	2.5	53.60	far surpasses the effect of acetylsalicylic acid
CC(=O)Nc1ccc(C2=NNC(=O)C3CC23)cc1 (centres unmarked) [Example 7, 2-(p-acetylaminophenyl)-3,4-diaza-bicyclo[4.1.0]hept-2-en-5-one]	0.193	1.75	8.65	demonstrable	0.79	0.14 (≈ 0.576 µM)	3530	30.7	4.36	far surpasses the effect of acetylsalicylic acid

Reference: patent publication US4271163A, “Novel 3,4-diaza-bicyclo[4.1.0]hept-2-en-5-ones, their preparation, and therapeutic agents containing these compounds” (BASF Aktiengesellschaft, priority 1978, dated 1981)
